From patent publication US7750021B2, “Immunosuppressant compounds and compositions” (IRM LLC, priority 2003, dated 2010)

How the values were obtained:
human EDG-1 = target: T1, human EDG-1 (Homo sapiens, UniProt P21453); assay: EDG-1 (S1P1) GTP [γ-35S] binding assay; type: biochemical; settings: GTP [γ-35S] binding to membranes from CHO cells expressing human EDG-1
T1 construct: c-myc (N); expressed in transfected cells
Experimental: (§1) A. In Vitro: GPCR Activation Assay Measuring GTP [γ-^35S] Binding to Membranes Prepared from CHO Cells Expressing Human EDG Receptors
EDG-1 (S1P1) GTP [γ-^35S] binding assay: Homogenized membranes are prepared from CHO cell clones stably expressing a human EDG-1 N-terminal c-myc tag. Cells are grown in suspension in two 850 cm^2 roller bottles for three or fours days before harvesting. The cells are centrifuged down, washed once with cold PBS, and resuspended in ≦20 ml of Buffer A (20 mM HEPES, pH 7.4, 10 mM EDTA, EDTA-free complete protease inhibitor cocktail [1 tablet/25 ml]). The cell suspension is homogenized on ice, using a Polytron homogenizer at 30000 rpm at three intervals of 15 seconds each. The homogenate is first centrifuged at 2000 rpm on a tabletop low speed centrifuge for 10 minutes. The supernatant, after passing through a cell strainer, is then re-centrifuged at 50,000×g for 25 minutes at 4° C. The pellet is resuspended into buffer B (15% glycerol, 20 mM HEPES, pH 7.4, 0.1 mM EDTA, EDTA-free complete protease inhibitor cocktail [1 tablet/10 ml]). Protein concentration of the prep is determined using the BCA Protein Assay kit (Pierce) using BSA as standard. The membranes are aliquoted and kept frozen at −80° C.
Solutions of test compounds ranging from 10 mM to 0.01 nM are prepared in DMSO. S1P is diluted in 4% BSA solution as positive controls. […]

[1] = tested on: EDG-3, EDG-5, EDG-6 and EDG-8; assay: EDG-3, -5, -6 and -8 GTP [γ-35S] binding assays (selectivity versus EDG-1); type: biochemical, human
Experimental: as §1
Solutions of test compounds ranging from 10 mM to 0.01 nM are prepared in DMSO. S1P is diluted in 4% BSA solution as positive controls. The desired amount of membrane prep is diluted with ice-cold assay buffer (20 mM HEPES, pH 7.4, 100 mM NaCl, 10 mM MgCl2, 0.1% Fatty acid-free BSA, 5 μM GDP) and vortexed well. 2 μl or less of compound is distributed into each well of a round-bottom 96-well polystyrene assay plate, followed by addition of 100 μl of diluted membranes (3-10 μg/well) and kept on ice until the addition of hot GTPγS. [^35S]-GTPγS is diluted 1:1000 (v/v) with cold assay buffer and 100 μl is added into each well. The reaction is carried out at room temperature for 90 minutes before the membranes are harvested onto Perkin-Elmer Unifilter® GF/B-96 filter plate using a Packard Filtermate Harvester. After several washes with wash buffer (20 mM HEPES, pH 7.4, 100 mM NaCl, 10 mM MgCl2), and a rinse with 95% ethanol, the filter is dried in a 37° C. oven for 30 minutes. MicroScint-20 is added and the plate sealed for scintillation counting on TopCount. EC50 values are obtained by fitting the GTP [γ-^35S] binding curves (raw data) with the dose response curve-fitting tool of GraphPad Prism. […]

blood lymphocytes = assay: Measurement of circulating lymphocytes (blood lymphocyte depletion); type: in vivo, Mice (C57b1/6 male); settings: Mus musculus, po, mice, orally by gavage, blood collected 6 and 24 hours after administration, read-out: ED50, effective dose required displaying 50% of blood lymphocyte depletion
Experimental: Measurement of circulating lymphocytes: Compounds are dissolved in DMSO and diluted to obtain a final concentration of 4% DMSO (v/v, final concentration) and then further diluted in a constant volume of Tween80 25%/H2O, v/v. Tween80 25%/H2O (200 μl), 4% DMSO, and FTY720 (10 μg) are included as negative and positive controls, respectively. Mice (C57b1/6 male, 6-10 week-old) are administered 250-300 μL of compound solution orally by gavages under short isoflurane anesthesia.
Blood is collected from the retro-orbital sinus 6 and 24 hours after drug administration under short isoflurane anesthesia. Whole blood samples are subjected to hematology analysis. Peripheral lymphocyte counts are determined using an automated analyzer. Subpopulations of peripheral blood lymphocytes are stained by fluorochrome-conjugated specific antibodies and analyzed using a fluorescent activating cell sorter (Facscalibur). Two mice are used to assess the lymphocyte depletion activity of each compound screened. The result is an ED50, which is defined as the effective dose required displaying 50% of blood lymphocyte depletion.

T1 sequence (P21453 whole entry): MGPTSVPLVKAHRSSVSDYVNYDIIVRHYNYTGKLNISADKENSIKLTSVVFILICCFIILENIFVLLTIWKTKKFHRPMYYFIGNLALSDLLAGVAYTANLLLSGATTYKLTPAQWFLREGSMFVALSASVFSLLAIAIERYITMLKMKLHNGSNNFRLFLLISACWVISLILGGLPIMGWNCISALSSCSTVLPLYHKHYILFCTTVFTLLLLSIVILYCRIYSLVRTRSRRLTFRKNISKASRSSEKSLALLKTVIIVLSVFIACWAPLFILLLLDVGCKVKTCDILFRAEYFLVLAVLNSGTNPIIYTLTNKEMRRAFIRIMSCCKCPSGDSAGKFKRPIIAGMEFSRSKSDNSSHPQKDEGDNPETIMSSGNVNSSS

## O=C(O)CCNCc1ccc2sc(-c3ccc(-c4ccccc4)c(C(F)(F)F)c3)cc2c1 [Example 1, 3-{[2-(2-Trifluoromethyl-biphenyl-4-yl)-benzo[b]thiophen-5-ylmethyl]-amino}-propionic acid]
Human EDG-1
  EC50: 0.6 nM
[1]
  selective for EDG-1 compared to one or more of the other receptors including EDG-3, EDG-5, EDG-6 and EDG-8: at least 1000 fold
Blood lymphocytes
  ED50: 0.2 mg/kg
